The assay has as its system hyperalgesia caused by SIN-1. Nature of the assay: Hyperalgesia caused by SIN-1. Particulars: rat; IV 15 minutes before first SIN-1 (1 mg/kg); FIG. 11. It is filed as in vivo. The method, then: Vehicle or compound 2 was given IV 15 minutes before the first administration of SIN-1 (1 mg/kg).

For `CC1(C)SC(Nc2ccccc2O)=N[C@@H]1C(=O)O` [Compound 2, (R)-2-(2-hydroxyphenylamino)-thiazoline-5,5-dimethyl-4-carboxylic acid], the “hyperalgesia caused by SIN-1” value is reported as “inhibits hyperalgesia caused by SIN-1”.
